{"source": "patent US11090305B2", "about": "“Methods and compositions to reduce oxidative stress” (University of Massachusetts, priority 2009, dated 2021)", "key": {"db/db MSC": {"system": "db/db MSC", "assay": "Oxidative/nitrative stress in db/db MSC (DCF-DA staining, nitrotyrosine)", "format": "cell-based, mouse", "conditions": "db/db MSC in vitro", "description": "Data are expressed as % positive DCF-DA cells/hpf. m±sd, n=5, *p<0.05. […] The db/db MSC expressed a greater oxidative/nitrative stress than WT MSC. […] In summary, in vitro, db/db MSC show greater oxidative nitrostive stress than WT MSCs and this phenotype can be reversed by N-acetylcysteine (NAC)."}, "[1]": {"system": "hypercholesterolemic mice (ApoE^−/−, HCD)", "assay": "Azoxymethane (AOM)-induced colorectal neoplasia", "set-up": "species or system mouse", "conditions": "in vivo pretreatment", "description": "All mice were purchased from Jackson Laboratories (Bar Harbor, Me.) and were maintained in the mouse barrier facility. Care of mice was in accordance with NIH guidelines and the Institutional Animal Care and Use Committee of the University of Massachusetts Medical School approved all protocols. Mice were kept on a 12 hr day/night schedule and were allowed free access to chow and water. ApoE^−/− and WT mice were fed standard mouse chow (5.4 g fat/100 g diet, 0% cholesterol). HCD mice were fed a diet with 10 g fat/100 g diet, […] (Research Diets, New Brunswick, N.J.). […] Azoxymethane (AOM) was given by intraperitoneal injection (10 mg/Kg weekly for 3 weeks); 1% dextran sodium sulfate was added to the drinking water for the Pt week after AOM treatment. The colon and rectum was removed en bloc from each mouse and the number of polyps was identified using a dissecting microscope. Each polyp was frozen in OCT at −80° C. and cryosections (10 μM) cut. […] (A) Total serum cholesterol measured under fasting conditions (16 hr) was greater in ApoE^−/− and HCD groups than in the WT group. […] Ten weeks later, the incidence and number of polyps were determined in the colon and rectum, and a pathologist blinded to study condition assigned each polyp a histological grade (hyperplasia, grade 1, 2, or 3 adenoma, or carcinoma). […]"}, "NKT and γδT cells": {"system": "NKT and γδT cells", "assay": "NKT and γδT cell populations (flow cytometry, immunostaining)", "format": "in vivo, mouse", "conditions": "hypercholesterolemic mice, 4 weeks", "description": "All mice were purchased from Jackson Laboratories (Bar Harbor, Me.) and were maintained in the mouse barrier facility. Care of mice was in accordance with NIH guidelines and the Institutional Animal Care and Use Committee of the University of Massachusetts Medical School approved all protocols. Mice were kept on a 12 hr day/night schedule and were allowed free access to chow and water. ApoE^−/− and WT mice were fed standard mouse chow (5.4 g fat/100 g diet, 0% cholesterol). HCD mice were fed a diet with 10 g fat/100 g diet, […] (Research Diets, New Brunswick, N.J.). […] Azoxymethane (AOM) was given by intraperitoneal injection (10 mg/Kg weekly for 3 weeks); 1% dextran sodium sulfate was added to the drinking water for the Pt week after AOM treatment.\nCells were stained with monoclonal antibodies conjugated to various fluoroprobes. These antibodies included: Notch1, cKit (2B8), Sca-1 (E13-161.7), CD4 (L3T4), CD8 (53-6.72), CD90.1, CD25, CD44, TCRβ, NK1.1, γδTCR, CD45.1, CD45.2. The lineage cocktail consisted of CD4, CD8, B220 (RA3-6B2), TER-119, Mac-1 (MI/70), and Gr-1 (RB6-8C5). All antibodies were purchased from BD Bioscience (San Diego, Calif.). FACS analysis was carried out on a FACS Diva.\nThe colon and rectum was removed en bloc from each mouse and the number of polyps was identified using a dissecting microscope. Each polyp was frozen in OCT at −80° C. and cryosections (10 μM) cut. H&E staining was used to identify the histological grade of each polyp, assigned by a pathologist blinded to study condition. Standard immunostaining protocol was used to identify γδT cells (monoclonal antibody to γδTCR, DAPI counterstaining) and NKT cells (monoclonal antibodies to TCR and NK1.1, DAPI counterstaining). Sections were viewed with a Zeiss immunofluorescent microscope and Axiovert software."}, "ApoE^−/−-derived HSCs": {"system": "ApoE^−/−-derived HSCs", "assay": "HSC transplantation into lethally irradiated WT recipients", "format": "in vivo, mouse", "conditions": "12 weeks after transplant; ApoE^−/− donors pretreated 4 weeks", "quoted_text": "HSC were purified from freshly harvested bone marrow mononuclear cells as c-Kit^+Sca-1^+CD90.1^lowLin^− by FACS sorting. Recipient mice were C57BL/6 (WT) on standard chow. Recipients underwent lethal irradiation (1100 Rads delivered in 2 doses 3 hr apart). Immediately after the 2nd irradiation, recipients were anesthetized (2% isoflurane) and 10^6 HSC/0.1 ml sterile PBS were transplanted via retro-orbital injection. Mice were followed for 12 weeks before study or administration of AOM.\nIt was next determined the oxidant status of HSCs transplanted into WT mice. To this end, lethally irradiated WT mice were transplanted with HSCs from WT or ApoE^−/− mice, or with HSCs harvested from ApoE^−/− mice pretreated with NAC for 4 weeks. […] Numbers in each representative FACS analysis are the m±sd for that group; n=5; *p<0.05 vs. WT→WT group; †p<0.05 for ApoE+NAC→WT vs. Apoe→WT."}}}
{"smiles": "CC(=O)N[C@@H](CS)C(=O)O", "note": "[NAC, N-acetylcysteine]", "values": [{"measurement": "oxidative/nitrative stress (DCF-DA staining, nitrotyrosine accumulation)", "setting": "db/db MSC", "result": "significantly reduced the presence of oxidative/nitrative stress"}, {"measurement": "histological severity of AOM-induced colorectal polyps", "setting": "[1]; ApoE^−/− and HCD mice", "result": "these effects were reversed by in vivo pretreatment with NAC"}, {"measurement": "susceptibility to AOM-induced neoplasia", "setting": "[1]; hypercholesterolemic mice", "result": "reduced susceptibility to AOM-induced neoplasia"}, {"measurement": "colonic resident populations of NKT and γδT cells", "setting": "NKT and γδT cells; healthy colon", "result": "restored the colonic resident populations of NKT and γδT cells to WT levels"}, {"measurement": "numbers of NKT and γδT cells in AOM-induced polyps", "setting": "NKT and γδT cells", "result": "significantly increased the numbers of NKT and γδT cells in all grades of AOM-induced polyps"}, {"measurement": "percentages of γδT cells and NKT cells in the thymus and peripheral blood", "setting": "NKT and γδT cells", "result": "reversed by in vivo treatment with NAC for 4 weeks"}, {"measurement": "percentage of γδT cells in peripheral blood and NKT cells in thymus and peripheral blood of WT recipients", "setting": "ApoE^−/−-derived HSCs", "result": "significantly less in WT recipients transplanted with ApoE^−/−-derived HSCs than WT mice transplanted with WT HSCs, or HSCs harvested from NAC-pretreated ApoE^−/− donor mice"}]}
